Entries after “also recorded” stand apart in the source; their conditions may differ. Like-named read-outs stand apart in the source and are kept apart here. Marks after values point to notes of the source that are not given here.
Key:
Drosophila suzukii = experiment: Impact of MB on D. suzukii control: pre-infested blueberries dipped in MB emulsion; type: in vivo; details: 1% MB, berries pre-infested 4 days, dipped 2 h, 10 days incubation at room temperature
Method: Assessment was conducted after 10 days incubation at room temperature.
Laboratory bioassay: Bioassays were conducted in USDA Beltsville laboratory at 25° C., 60% RH, under a 16L:8D photoperiod with ˜1700 lux light illuminance. A fume hood was maintained at same conditions with face velocity at 129 FPM. The plastic cups (32 oz, diameter 4.5 inches, deep 5 inches, or 16 oz, diameter 4.5 inches, deep 2.5 inches) were purchased from papermart.com (CA). The cover was cut into a 80 mm diameter hole and glued with an 85 mm diameter Nylon screen mesh (81×81 per inch) mesh size, BioQuip, CA). The polystyrene vials (height 95 mm, diameter 28.5 mm) and plugs were obtained from Fisher Scientific (Pittsburg, Pa.). The plastic cage (30×30×30 cm) was purchased from BugDorm (Rancho Dominguez, Calif.). Glass vial (20 mL), glass spray bottle (Amber glass with spray top, 30 mL), Petri dish (9 cm diameter), and Whatman filter paper (90 mm diameter) were obtained from VWR (Atlanta, Ga.). […]
Impact of MB on D. suzukii control: To investigate the acute toxicity of MB against D. suzukii, 100 blueberries were placed in a plastic cage (30×30×30 cm) and infested by 100 mixed sex adult D. suzukii for 4 days. […] Present of adults were then subsequently assessed and development of larvae and pupae was further inspected by dissection of the berries. […]

D. suzukii = experiment: Oviposition deterrent / adult toxicity of MB and other VOCs on pre-treated blueberries; type: in vivo, Drosophila suzukii; details: for Activity against adult D. suzukii: 2 days exposure to pre-treated blueberries; for Toxicity / mortality against adult D. suzukii: blueberries soaked 2 h, 48 h (2 days) exposure; for Adults emerged from pre-treated berries / Pupae developed from pre-treated berries compared with blank control: further 10 days incubation at room temperature
Method: Mortality assessed after 48 hrs exposure to pre-treated blueberries (60 berries/treatment, 1% solution soaking for 2 hr) as described below.
Numbers assessed after 10 days incubation at room temperature as described below.
Mortality assessed after 48 hrs exposure to pre-treated blueberries (60 berries/treatment, soaking for 2 hr) as described below.
Numbers assessed after 10 days incubation at room temperature.
Laboratory bioassay: Bioassays were conducted in USDA Beltsville laboratory at 25° C., 60% RH, under a 16L:8D photoperiod with ˜1700 lux light illuminance. A fume hood was maintained at same conditions with face velocity at 129 FPM. The plastic cups (32 oz, diameter 4.5 inches, deep 5 inches, or 16 oz, diameter 4.5 inches, deep 2.5 inches) were purchased from papermart.com (CA). The cover was cut into a 80 mm diameter hole and glued with an 85 mm diameter Nylon screen mesh (81×81 per inch) mesh size, BioQuip, CA). The polystyrene vials (height 95 mm, diameter 28.5 mm) and plugs were obtained from Fisher Scientific (Pittsburg, Pa.). The plastic cage (30×30×30 cm) was purchased from BugDorm (Rancho Dominguez, Calif.). Glass vial (20 mL), glass spray bottle (Amber glass with spray top, 30 mL), Petri dish (9 cm diameter), and Whatman filter paper (90 mm diameter) were obtained from VWR (Atlanta, Ga.). Deionized water (DI) containing 1% emulsifier (v/v), Tween 20 and Tween 80, at 1.1 ratio was used to make different VOCs water solutions and also used as blank control.
Evaluation of MB and other VOCs as oviposition deterrent against D. suzukii: To examine the oviposition deterrent property of MB and other essential oils against D. suzukii, 10 blueberries were separately dipped in 100 mL MB or other essential oil aqueous emulsions at 1% concentration for 2 h. Another 10 blueberries were dipped in 100 mL DI water for 2 h as control. The blueberries were separately placed on different Petri dishes and allowed to air dry for 2 h. After a Petri dish containing 10 treated blueberries was put into a plastic cup (32 oz), 10 mixed sex adults D. suzukii were subsequently introduced into each cup. Mortality of the D. suzukii was examined after 48 h. After removing all insects, the blueberries were maintained at room temperature for another 10 days. Present of adults were subsequently assessed and development of larvae and pupae was further inspected by dissection of the berries.

H. halys nymphs = experiment: Toxicity of MB against H. halys nymphs (treated filter paper in glass vial); type: in vivo, Halyomorpha halys; details: mortality after 24 hr
Method: Toxicity of MB against H. halys nymphs: The bioassays were carried out in glass vials (20 mL). Filter paper was cut into round shaped pieces (2.4 cm diameter). 50 μL MB acetone solution with different concentrations was loaded onto the filter paper evenly, and the filter paper was dried for 1 min and then put into the bottom of the vial. A small piece of green bean was put on the filter paper in the vial as food source. Different stages of H. halys nymphs were introduced into the vial and capped with a cotton ball. For each stage, 30 nymphs were used for each amount of MB loading. For the nymphs of the first instar, 10 nymphs were put into 1 vial. For the nymphs of the second and third instar, 5 nymphs were put into 1 vial. For the nymphs of the fourth instar, 3 nymphs were put into 1 vial. For the nymphs of the fifth instar, 2 nymphs were put into 1 vial. The mortality was assessed after 24 hr.
(§1) Data analysis: Comparisons of different treatments were analyzed using one-way ANOVA followed by Ryan-Eibot-Gabriel-Welsch F test (SPSS 10.0 for Windows (George, D., and P. Mallery, SPSS for Windows step by step: A simple guide and reference, 4th edition, Allyn & Bacon, 2002)) for significance at α=0.05.

H. halys eggs = type: in vivo
Method: (§2) Ovicidal toxicity of MB and commercial pesticides: The aqueous solutions of MB with designated concentrations and commercially available pesticides with different concentrations of active ingredient (AI) were separately stored in glass spray bottles. The eggs (10 for H. halys and M. sexta, 100 for P. xylostella) were laid on filter papers in Petri dishes. Different aqueous solutions were sprayed on the surfaces of different eggs three times (˜0.5 mL) to completely cover the treatment areas. Then Petri dishes were covered with lids and maintained in a fume hood for 10 days. The Petri dishes were then inspected for presence of nymph/larvae development or numbers of unhatched eggs.
as §1

M. sexta eggs = type: in vivo
Method: as §2, §1

P. xylostella eggs = type: in vivo
Method: as §2, §1

[1] = by ingestion and inhalation; cited from earlier work

## COC(=O)c1ccccc1 [MB, methyl benzoate]
Drosophila suzukii
  Larvae/pupae development and adult emergence from pre-infested blueberries: no larvae and pupae developed or adult flies emerged
  Mortality of D. suzukii in pre-infested blueberries: complete mortality
D. suzukii; 0.1% MB
  Activity against adult D. suzukii: no significant activity
D. suzukii; 0.5% MB
  Activity against adult D. suzukii: Little activity
D. suzukii; 1% solution
  Toxicity / mortality against adult D. suzukii: complete mortality; also recorded: potent activity
  Adults emerged from pre-treated berries: no adults emerged
  Pupae developed from pre-treated berries compared with blank control: significantly fewer pupae developed
D. suzukii; 1% solution, listed as methyl benzoate
  Toxicity / mortality against adult D. suzukii: complete mortality
D. suzukii; 5% MB
  Activity against adult D. suzukii: potent activity
  Adults emerged from pre-treated berries: no adults emerged
  Pupae developed from pre-treated berries compared with blank control: significantly fewer pupae developed
H. halys nymphs; 1st instar nymphs
  LC50 (95% CL): 1.03 (0.93-1.10) μL/via1
H. halys nymphs; 2nd instar nymphs
  LC50 (95% CL): 1.01 (0.86-1.12) μL/via1
H. halys nymphs; 3rd instar nymphs
  LC50 (95% CL): 1.23 (1.12-1.33) μL/via1
H. halys nymphs; 4th instar nymphs
  LC50 (95% CL): 2.39 (2.19-2.60) μL/via1
H. halys nymphs; 5th instar nymphs
  LC50 (95% CL): 1.77 (1.60-1.93) μL/via1
H. halys eggs; H. halys eggs
  Dosage (active ingredient) needed to reach 100% egg mortality: 0.0637 mg/cm^2
H. halys eggs; H. halys eggs, MB 0.025%, AI dose 0.0016 mg/cm^2, 10 days exposure
  Hatchability (%) (mean ± SE): 67 ± 8.8^d %
H. halys eggs; H. halys eggs, MB 0.05%, AI dose 0.0032 mg/cm^2, 10 days exposure
  Hatchability (%) (mean ± SE): 63 ± 17.6^cd %
H. halys eggs; H. halys eggs, MB 0.1%, AI dose 0.0064 mg/cm^2, 10 days exposure
  Hatchability (%) (mean ± SE): 60 ± 10.0^cd %
H. halys eggs; H. halys eggs, MB 0.25, AI dose 0.0159 mg/cm^2, 10 days exposure
  Hatchability (%) (mean ± SE): 43 ± 6.7^abcd %
H. halys eggs; H. halys eggs, MB 1%, AI dose 0.0637 mg/cm^2, 10 days exposure
  Hatchability (%) (mean ± SE): 0 ± 0.0^a %
H. halys eggs; H. halys eggs, MB 2%, AI dose 0.1273 mg/cm^2, 10 days exposure
  Hatchability (%) (mean ± SE): 0 ± 0.0^a %
H. halys eggs; H. halys eggs, MB 4%, AI dose 0.2546 mg/cm^2, 10 days exposure
  Hatchability (%) (mean ± SE): 0 ± 0.0^a %
H. halys eggs; H. halys eggs, MB at 0.0318 mg/cm^2 vs deltamethrin 0.0019, ζ-cypermethrin 0.0223, carbaryl 0.0080, β-cyfluthrin 0.1592, sulfur/pyrethrin 0.6525, organic essential oil product 0.3979 mg/cm^2
  Ovicidal potency compared with commercial pesticides, in words: as potent as
H. halys eggs; H. halys eggs, spray, 10 days
  LC95 (95% CL): 0.048 mg/cm^2
H. halys eggs; in vivo
  Hatchability (%) (mean ± SE): 17 ± 12.0^ab %
  LC50 (95% CL): 0.020 mg/cm^2
  Times more toxic than organic commercial product (2-phenethyl propionate, clover oil, rosemary oil, thyme oil): 12 times
  Times more toxic than sulfur & pyrethrin mixture: 20 times
  Times more toxic than the conventional pyrethroid (β-cyfluthrin): 5 times
M. sexta eggs; M. sexta eggs, MB 0.0637 mg/cm^2 vs bifenthrin & ζ-cypermethrin 0.0239 and essential oil product 0.3979 mg/cm^2
  Ovicidal toxicity compared with commercial pesticides, in words: significantly better
M. sexta eggs; M. sexta eggs, MB 0.025%, AI dose 0.0016 mg/cm^2, 10 days exposure
  Hatchability (%) (mean ± SE): 67 ± 8.8^c %
M. sexta eggs; M. sexta eggs, MB 0.05%, AI dose 0.0032 mg/cm^2, 10 days exposure
  Hatchability (%) (mean ± SE): 63 ± 8.8^c %
M. sexta eggs; M. sexta eggs, MB 0.1%, AI dose 0.0064 mg/cm^2, 10 days exposure
  Hatchability (%) (mean ± SE): 50 ± 17.3^c %
M. sexta eggs; M. sexta eggs, MB 0.25, AI dose 0.0159 mg/cm^2, 10 days exposure
  Hatchability (%) (mean ± SE): 40 ± 15.3^c %
M. sexta eggs; M. sexta eggs, MB 0.5%, AI dose 0.0318 mg/cm^2, 10 days exposure
  Hatchability (%) (mean ± SE): 20 ± 10.0^abc %
M. sexta eggs; M. sexta eggs, MB 1%, AI dose 0.0637 mg/cm^2, 10 days exposure
  Hatchability (%) (mean ± SE): 3 ± 3.35^ab %
M. sexta eggs; M. sexta eggs, MB 2%, AI dose 0.1273 mg/cm^2, 10 days exposure
  Hatchability (%) (mean ± SE): 0 ± 0.0^a %
M. sexta eggs; M. sexta eggs, MB 4%, AI dose 0.2546 mg/cm^2, 10 days exposure
  Hatchability (%) (mean ± SE): 0 ± 0.0^a %
M. sexta eggs; M. sexta eggs, spray, 10 days
  LC50 (95% CL): 0.015 mg/cm^2
  LC95 (95% CL): 0.060 mg/cm^2
M. sexta eggs; MB at 0.0637 mg/cm^2 dose
  Toxicity against M. sexta eggs in words: potent toxic agent
P. xylostella eggs; P. xylostella eggs
  Dose needed to reach 100% egg mortality: 0.0064 mg/cm^2
P. xylostella eggs; P. xylostella eggs, MB 0.025%, AI dose 0.0016 mg/cm^2, 10 days exposure
  Hatchability (%) (mean ± SE): 38 ± 5.5^c %
P. xylostella eggs; P. xylostella eggs, MB 0.05%, AI dose 0.0032 mg/cm^2, 10 days exposure
  Hatchability (%) (mean ± SE): 13 ± 5.0^ab %
P. xylostella eggs; P. xylostella eggs, MB 0.1%, AI dose 0.0064 mg/cm^2, 10 days exposure
  Hatchability (%) (mean ± SE): 0 ± 0.3^a %
P. xylostella eggs; P. xylostella eggs, MB 0.25, AI dose 0.0159 mg/cm^2, 10 days exposure
  Hatchability (%) (mean ± SE): 1 ± 0.0^a %
P. xylostella eggs; P. xylostella eggs, MB 0.5%, AI dose 0.0318 mg/cm^2, 10 days exposure
  Hatchability (%) (mean ± SE): 0 ± 0.0^a %
P. xylostella eggs; P. xylostella eggs, MB 1%, AI dose 0.0637 mg/cm^2, 10 days exposure
  Hatchability (%) (mean ± SE): 0 ± 0.0^a %
P. xylostella eggs; P. xylostella eggs, MB at as low as 0.0032 mg/cm^2 dose
  Ovicidal activity in words: potent ovicidal activity
P. xylostella eggs; P. xylostella vs H. halys eggs
  Dose for 100% egg mortality of P. xylostella: times less than H. halys eggs needed: 10 times
P. xylostella eggs; P. xylostella vs M. sexta eggs
  Dose for 100% egg mortality of P. xylostella: times less than M. sexta eggs needed: 20 times
P. xylostella eggs; in vivo
  LC50 (95% CL): 0.001 mg/cm^2
  LC95 (95% CL): 0.005 mg/cm^2
[1]
  Human toxicity: low to moderate human toxicity
